Source: patent publication US20060148858A1, “1, 2-Azole derivatives with hypoglycemic and hypolipidemic activity” (priority 2002, published 2006)

SMILES | melting point
CC(C)c1nn(-c2ccc(C(F)(F)F)cn2)cc1CCCOc1c(C#N)cccc1CC(=O)O [Example 231, [3-cyano-2-(3-{3-isopropyl-1-[5-(trifluoromethyl)-2-pyridinyl]-1H-pyrazol-4-yl}propoxy)phenyl]acetic acid] | 144 to 145 °C
CCCc1nn(-c2ccc(C(F)(F)F)cn2)cc1CCCOc1c(C#N)cccc1CC(=O)O [Example 233, [3-cyano-2-(3-{3-propyl-1-[5-(trifluoromethyl)-2-pyridinyl]-1H-pyrazol-4-yl}propoxy)phenyl]acetic acid] | 146 to 147 °C
CCc1cccc(CC(=O)O)c1OCCCc1cn(-c2ccc(Cl)cn2)nc1C(C)C [Example 243, (2-{3-[1-(5-chloro-2-pyridinyl)-3-isopropyl-1H-pyrazol-4-yl]propoxy}-3-ethylphenyl)acetic acid] | 142 to 143 °C
CCc1cccc(CC(=O)O)c1OCCCc1cn(-c2ncc(C(F)(F)F)cc2Cl)nc1C(C)C [Example 249, [2-(3-{1-[3-chloro-5-(trifluoromethyl)-2-pyridinyl]-3-isopropyl-1H-pyrazol-4-yl}propoxy)-3-ethylphenyl]acetic acid] | 93 to 95 °C
CCc1cccc(CC(=O)O)c1OCCCc1cn(-c2ncc(Cl)cc2Cl)nc1C(C)C [Example 251, (2-{3-[1-(3,5-dichloro-2-pyridinyl)-3-isopropyl-1H-pyrazol-4-yl]propoxy}-3-ethylphenyl)acetic acid] | 93 to 95 °C
CCCc1cn(CC(=O)O)nc1OCCCc1cn(-c2ccc(C(F)(F)F)cn2)nc1CCC [Example 254, [4-propyl-3-(3-{3-propyl-1-[5-(trifluoromethyl)-2-pyridyl]-1H-pyrazol-4-yl}propoxy)-1H-pyrazol-1-yl]acetic acid] | 138 to 139 °C
CCCc1nn(-c2ccc(C(F)(F)F)cn2)cc1CCCOc1cc(CCC(=O)O)n(C2CCCCC2)n1 [Example 256, 3-[1-cyclohexyl-3-(3-{3-propyl-1-[5-(trifluoromethyl)-2-pyridyl]-1H-pyrazol-4-yl}propoxy)-1H-pyrazol-5-yl]propanoic acid] | 164 to 165 °C
CCOc1nn(-c2ccc(C(F)(F)F)cn2)cc1CCCOc1cc(CCC(=O)O)n(C2CCCCC2)n1 [Example 257, 3-[1-cyclohexyl-3-(3-{3-ethoxy-1-[5-(trifluoromethyl)-2-pyridyl]-1H-pyrazol-4-yl}propoxy)-1H-pyrazol-5-yl]propanoic acid] | 89 to 90 °C
O=C(O)CCc1cc(OCCCc2cn(-c3ccc(C(F)(F)F)cn3)nc2C2CCCCC2)nn1C1CCCCC1 [Example 261, 3-[1-cyclohexyl-3-(3-{3-cyclohexyl-1-[5-(trifluoromethyl)-2-pyridyl]-1H-pyrazol-4-yl}propoxy)-1H-pyrazol-5-yl]propanoic acid] | 190 to 191 °C
CC(C)c1nn(-c2ccc(C(F)(F)F)cn2)cc1CCCOc1cc(CCC(=O)O)n(C2CCCCC2)n1 [Example 262, 3-[1-cyclohexyl-3-(3-{3-isopropyl-1-[5-(trifluoromethyl)-2-pyridyl]-1H-pyrazol-4-yl}propoxy)-1H-pyrazol-5-yl]propanoic acid] | 166 to 167 °C
CC(C)c1nn(-c2ccc(C(F)(F)F)cn2)cc1CCCOc1cc(CCC(=O)O)n(C(C)C)n1 [Example 263, 3-[1-isopropyl-3-(3-{3-isopropyl-1-[5-(trifluoromethyl)-2-pyridyl]-1H-pyrazol-4-yl}propoxy)-1H-pyrazol-5-yl]propanoic acid] | 130 to 131 °C
COc1cccc(CC(=O)O)c1OCCCc1cn(-c2ccc(NC(C)=O)cn2)nc1C(C)C [Example 265, (2-{3-[1-(5-acetylamino-2-pyridyl)-3-isopropyl-1H-pyrazol-4-yl]propoxy}-3-methoxyphenyl)acetic acid] | 158 to 159 °C
CCC(=O)Nc1ccc(-n2cc(CCCOc3c(CC(=O)O)cccc3OC)c(C(C)C)n2)nc1 [Example 266, (3-methoxy-2-{3-[3-isopropyl-1-(5-propanoylamino-2-pyridyl)-1H-pyrazol-4-yl]propoxy}phenyl)acetic acid] | 147 to 148 °C
CCCC(=O)Nc1ccc(-n2cc(CCCOc3c(CC(=O)O)cccc3OC)c(C(C)C)n2)nc1 [Example 267, (2-{3-[1-(5-butyrylamino-2-pyridyl)-3-isopropyl-1H-pyrazol-4-yl]propoxy}-3-methoxyphenyl)acetic acid] | 119 to 120 °C
COc1cccc(CC(=O)O)c1OCCCc1cn(-c2ccc(NC(=O)C(C)C)cn2)nc1C(C)C [Example 268, [3-methoxy-2-(3-{3-isopropyl-1-[5-(2-methylpropanoylamino)-2-pyridyl]-1H-pyrazol-4-yl}propoxy)phenyl]acetic acid] | 122 to 123 °C
COc1cccc(CC(=O)O)c1OCCCc1cn(-c2ccc(NS(C)(=O)=O)cn2)nc1C(C)C [Example 269, (3-methoxy-2-{3-[3-isopropyl-1-(5-methylsulfonylamino-2-pyridyl)-1H-pyrazol-4-yl]propoxy}phenyl)acetic acid] | 176 to 177 °C
CCc1cnc(-n2cc(CCCOc3c(CC(=O)O)cccc3OC)c(C(C)C)n2)nc1 [Example 276, (2-{3-[1-(5-ethylpyrimidin-2-yl)-3-isopropyl-1H-pyrazol-4-yl]propoxy}-3-methoxyphenyl)acetic acid] | 103 to 104 °C

SMILES | melting point
Cc1nn(-c2ccc(C(F)(F)F)cn2)cc1CCCOc1cc(CC(=O)O)n(C)n1 [Example 283, [1-methyl-3-(3-{3-methyl-1-[5-(trifluoromethyl)-2-pyridinyl]-1H-pyrazol-4-yl}propoxy)-1H-pyrazol-5-yl]acetic acid] | 143 to 144 °C
CCOc1nn(-c2ccc(C(F)(F)F)cn2)cc1CCOc1cc(CC(=O)O)n(C)n1 [Example 284, [3-(2-{3-ethoxy-1-[5-(trifluoromethyl)-2-pyridinyl]-1H-pyrazol-4-yl}ethoxy)-1-methyl-1H-pyrazol-5-yl]acetic acid] | 156 to 158 °C
CCOc1cc(OCCCc2cn(-c3cc(C(F)(F)F)ccn3)nc2OCC)ccc1CCC(=O)OC [Example 285, methyl 3-[2-ethoxy-4-(3-{3-ethoxy-1-[4-(trifluoromethyl)-2-pyridinyl]-1H-pyrazol-4-yl}propoxy)phenyl]propanoate] | 79 to 81 °C
CCOc1nn(-c2cc(C(F)(F)F)ccn2)cc1CCCOc1cccc(CC(=O)O)c1 [Example 286, [3-(3-{3-ethoxy-1-[4-(trifluoromethyl)-2-pyridinyl]-1H-pyrazol-4-yl}propoxy)phenyl]acetic acid] | 128 to 130 °C
CCOc1nn(-c2cc(C(F)(F)F)ccn2)cc1CCCOc1ccc(CCC(=O)O)cc1OC [Example 287, 3-[4-(3-{3-ethoxy-1-[4-(trifluoromethyl)-2-pyridinyl]-1H-pyrazol-4-yl}propoxy)-3-methoxyphenyl]propanoic acid] | 111 to 112 °C
CCOc1nn(-c2cc(C(F)(F)F)ccn2)cc1CCCOc1ccccc1CC(=O)O [Example 288, [2-(3-{3-ethoxy-1-[4-(trifluoromethyl)-2-pyridinyl]-1H-pyrazol-4-yl}propoxy)phenyl]acetic acid] | 121 to 122 °C
CCOc1nn(-c2cc(C(F)(F)F)ccn2)cc1CCCOc1cccc(OC(C)(C)C(=O)O)c1 [Example 289, 2-[3-(3-{3-ethoxy-1-[4-(trifluoromethyl)-2-pyridinyl]-1H-pyrazol-4-yl}propoxy)phenoxy]-2-methylpropanoic acid] | 98 to 99 °C
CCCc1nn(-c2ccc(C(F)(F)F)cn2)cc1CCCCOc1c(CC(=O)O)cccc1OC [Example 295, [3-methoxy-2-(4-{3-propyl-1-[5-(trifluoromethyl)-2-pyridinyl]-1H-pyrazol-4-yl}butoxy)phenyl]acetic acid] | 111 to 112 °C
CCCc1nn(-c2ccc(C(F)(F)F)cc2)cc1CCCOc1c(CC(=O)O)cccc1OC [Example 297, [3-methoxy-2-(3-{3-propyl-1-[4-(trifluoromethyl)phenyl]-1H-pyrazol-4-yl}propoxy)phenyl]acetic acid] | 95 to 96 °C
CCOc1cc(OCCCc2cn(-c3cc(C(F)(F)F)ccn3)nc2OCC)ccc1CCC(=O)O [Example 298, 3-[2-ethoxy-4-(3-{3-ethoxy-1-[4-(trifluoromethyl)-2-pyridinyl]-1H-pyrazol-4-yl}propoxy)phenyl]propanoic acid] | 119 to 120 °C
CCOc1cccc(CC(=O)O)c1OCCCc1cn(-c2ccc(C(F)(F)F)cn2)nc1OCC [Example 301, [3-ethoxy-2-(3-{3-ethoxy-1-[5-(trifluoromethyl)-2-pyridinyl]-1H-pyrazol-4-yl}propoxy)phenyl]acetic acid] | 114 to 115 °C
CC(C)c1nn(-c2ccc(Cl)cn2)cc1CCCOc1ccccc1CC(=O)O [Example 308, (2-{3-[1-(5-chloro-2-pyridinyl)-3-isopropyl-1H-pyrazol-4-yl]propoxy}phenyl)acetic acid] | 141 to 142 °C
CC(C)c1nn(-c2ccccn2)cc1CCCOc1ccccc1CC(=O)O [Example 309, (2-{3-[3-isopropyl-1-(2-pyridinyl)-1H-pyrazol-4-yl]propoxy}phenyl)acetic acid] | 140 to 142 °C
CC(C)c1nn(-c2ccc(C(F)(F)F)cn2)cc1CCCOc1nn(C)cc1CCC(=O)O [Example 310, 3-[3-(3-{3-isopropyl-1-[5-(trifluoromethyl)-2-pyridinyl]-1H-pyrazol-4-yl}propoxy)-1-methyl-1H-pyrazol-4-yl]propanoic acid] | 124 to 125 °C
COc1cccc(CC(=O)O)c1OCCCc1cn(-c2ccccn2)nc1C(C)C [Example 312, (2-{3-[3-isopropyl-1-(2-pyridinyl)-1H-pyrazol-4-yl]propoxy}-3-methoxyphenyl)acetic acid] | 102 to 104 °C
CCCc1nn(-c2ccc(C(F)(F)F)cn2)cc1CCCOc1nn(C)cc1CCC(=O)O [Example 314, 3-[1-methyl-3-(3-{3-propyl-1-[5-(trifluoromethyl)-2-pyridinyl]-1H-pyrazol-4-yl}propoxy)-1H-pyrazol-4-yl]propanoic acid] | 103 to 104 °C
